Reference: ChEMBL document CHEMBL1147043, “Comparative metabolism of radiolabeled muraglitazar in animals and humans by quantitative and qualitative metabolite profiling” (Drug Metab Dispos, 2007)

What was measured:
Hepatocyte [1] = assay: Metabolic stability in Sprague-Dawley rat hepatocytes assessed as di-oxygenated muraglitazar level by LC/MS analysis relative to control; type: ADME, cell-based
Plasma [2] = assay: Biodistribution in orally dosed cynomolgus monkey plasma assessed as O-demethyl muraglitazar level after 1 hr by LC/MS analysis; type: ADME, organism-based, Macaca fascicularis; settings: in vivo, po
Hepatocyte [3] = assay: Metabolic stability in Sprague-Dawley rat hepatocytes assessed as hydroxyl muraglitazar glucuronide level by LC/MS analysis relative to control; type: ADME, cell-based
Hepatocyte [4] = assay: Metabolic stability in human hepatocytes assessed as O-demethyl muraglitazar glucuronide level by LC/MS analysis relative to control; type: ADME, cell-based
Rattus norvegicus [5] = assay: AUC (0 to T) in Sprague-Dawley rat at 10 mg/kg, po after 24 hrs; type: ADME, organism-based, Plasma; design: time < 24 hr, dose 10 mg/kg, route oral; settings: in vivo
[6] = Drug concentration in human urine assessed as recovery of radioactive dose at 20 mg, po after 240 hrs; type: ADME, organism-based; settings: in vivo
[7] = Half life in cynomolgus monkey at 1.9 mg/kg, po after 24 hrs; type: ADME, organism-based, Macaca fascicularis; design: dose 1.9 mg/kg, route oral; settings: in vivo
Plasma [8] = assay: Biodistribution in orally dosed Sprague-Dawley rat plasma assessed as 17-dihydroxy muraglitazar level after 12 hrs by LC/MS analysis; type: ADME, organism-based; settings: in vivo, po
Cynomolgus monkey = assay: AUC (0 to T) in cynomolgus monkey at 1.9 mg/kg, po after 24 hrs; type: ADME, organism-based, Macaca fascicularis, Plasma; design: time < 24 hr, dose 1.9 mg/kg, route oral; settings: in vivo
[9] = Biodistribution in orally dosed cynomolgus monkey feces assessed as 8,12-dihydroxy muraglitazar level by LC/MS analysis; type: ADME, organism-based, Macaca fascicularis; settings: in vivo, po
Plasma [10] = assay: Biodistribution in orally dosed human plasma assessed as O-demethyl muraglitazar level after 4 hrs by LC/MS analysis; type: ADME, organism-based; settings: in vivo, po
[11] = Drug concentration in Beagle dog urine at 2 mg/kg, po after 24 hrs; type: ADME, organism-based, Canis lupus familiaris; design: dose 2 mg/kg, route oral; settings: read-out: Drug uptake
[12] = Drug concentration in bile duct-cannulated CD1 mouse urine assessed as recovery of radioactive dose at 1 mg/kg, po after 24 hrs; type: ADME, organism-based; design: dose 1 mg/kg, route oral; settings: in vivo
Rattus norvegicus [13] = assay: Biodistribution in orally dosed Sprague-Dawley rat urine assessed as 9-hydroxy-O-demethyl muraglitazar level by LC/MS analysis; type: ADME, organism-based; settings: in vivo, po
Rattus norvegicus [14] = assay: Biodistribution in orally dosed Sprague-Dawley rat feces assessed as O-dealkyl muraglitazar level by LC/MS analysis; type: ADME, organism-based; settings: in vivo, po
Hepatocyte [15] = assay: Metabolic stability in Sprague-Dawley rat hepatocytes assessed as hydroxyl-O-demethyl muraglitazar glucuronide level by LC/MS analysis relative to control; type: ADME, cell-based
[16] = Biodistribution in orally dosed human feces assessed as 12-hydroxy muraglitazar level by LC/MS analysis; type: ADME, organism-based; settings: in vivo, po
[17] = Metabolic stability in CD1 mouse hepatocytes assessed as 12-hydroxy-O-demethyl muraglitazar level by LC/MS analysis relative to control; type: ADME, cell-based, Hepatocyte
[18] = Biodistribution in orally dosed Beagle dog feces assessed as muraglitazar 12-carboxylic acid level by LC/MS analysis; type: ADME, organism-based, Canis lupus familiaris; settings: in vivo, po
[19] = Drug concentration in bile duct-cannulated CD1 mouse bile at 1 mg/kg, po after 24 hrs; type: ADME, organism-based; design: dose 1 mg/kg, route oral; settings: in vivo
[20] = Bile excretion of compound in bile duct-cannulated orally dosed Sprague-Dawley rat within 24 hrs; type: ADME, organism-based; settings: po, read-out: Activity
[21] = Drug concentration in Beagle dog feces assessed as recovery of radioactive dose at 1.9 mg/kg, po after 168 hrs; type: ADME, organism-based, Canis lupus familiaris; design: dose 1.9 mg/kg, route oral; settings: in vivo
Plasma [22] = assay: Biodistribution in orally dosed Sprague-Dawley rat plasma assessed as 12-hydroxy-O-demethyl muraglitazar level after 12 hrs by LC/MS analysis; type: ADME, organism-based; settings: in vivo, po
Plasma [23] = assay: Biodistribution in orally dosed cynomolgus monkey plasma assessed as muraglitazar 12-carboxylic acid level after 12 hrs by LC/MS analysis; type: ADME, organism-based, Macaca fascicularis; settings: in vivo, po
Hepatocyte [24] = assay: Metabolic stability in human hepatocytes assessed as 8-hydroxy-O-demethyl muraglitazar level by LC/MS analysis relative to control; type: ADME, cell-based
[25] = Metabolic stability in cynomolgus monkey hepatocytes assessed as 8-hydroxy-O-demethyl muraglitazar level by LC/MS analysis relative to control; type: ADME, cell-based, Macaca fascicularis, Hepatocyte
Plasma [26] = assay: Biodistribution in orally dosed Sprague-Dawley rat plasma assessed as 17-hydroxy-O-demethyl muraglitazar level after 12 hrs by LC/MS analysis; type: ADME, organism-based; settings: in vivo, po
[27] = Biodistribution in orally dosed human urine assessed as 12-hydroxy-O-demethyl muraglitazar level by LC/MS analysis; type: ADME, organism-based; settings: in vivo, po
[28] = Biodistribution in orally dosed cynomolgus monkey urine assessed as 9-hydroxy-O-demethyl muraglitazar level by LC/MS analysis; type: ADME, organism-based, Macaca fascicularis; settings: in vivo, po
[29] = Fecal excretion of compound in orally dosed human within 48 hrs; type: ADME, organism-based; settings: faeces, po, read-out: Activity
Homo sapiens = assay: Cmax in human at 10 mg, po after 72 hrs; type: ADME, organism-based; design: dose 10 mg, route oral; settings: in vivo
[30] = Metabolic stability in cynomolgus monkey hepatocytes assessed as 17-hydroxy-O-demethyl muraglitazar level by LC/MS analysis relative to control; type: ADME, cell-based, Macaca fascicularis, Hepatocyte
[31] = Drug concentration in cynomolgus monkey urine assessed as recovery of radioactive dose at 2 mg/kg, po after 168 hrs; type: ADME, organism-based, Macaca fascicularis; design: dose 2 mg/kg, route oral; settings: in vivo
[32] = Biodistribution in orally dosed cynomolgus monkey feces assessed as 12-hydroxy-O-demethyl muraglitazar level by LC/MS analysis; type: ADME, organism-based, Macaca fascicularis; settings: in vivo, po
Hepatocyte [33] = assay: Metabolic stability in human hepatocytes assessed as 9-hydroxy muraglitazar level by LC/MS analysis relative to control; type: ADME, cell-based
Plasma [34] = assay: Biodistribution in orally dosed Beagle dog plasma assessed as O-demethyl muraglitazar glucuronide level after 4 hrs by LC/MS analysis; type: ADME, organism-based, Canis lupus familiaris; settings: in vivo, po
[35] = Biodistribution in orally dosed human feces assessed as acetylimide derivative of muraglitazar level by LC/MS analysis; type: ADME, organism-based; settings: in vivo, po
[36] = Biodistribution in orally dosed human feces assessed as 9-hydroxy muraglitazar level by LC/MS analysis; type: ADME, organism-based; settings: in vivo, po
Rattus norvegicus [37] = assay: Biodistribution in orally dosed Sprague-Dawley rat urine assessed as 8-hydroxy-O-demethyl muraglitazar level by LC/MS analysis; type: ADME, organism-based; settings: in vivo, po
[38] = Biodistribution in orally dosed cynomolgus monkey urine assessed as 8-hydroxy-O-demethyl muraglitazar level by LC/MS analysis; type: ADME, organism-based, Macaca fascicularis; settings: in vivo, po
[39] = Metabolic stability in CD1 mouse hepatocytes assessed as O-Dealkyl muraglitazar level by LC/MS analysis relative to control; type: ADME, cell-based, Hepatocyte
[40] = Drug concentration in bile duct-cannulated CD1 mouse bile assessed as recovery of radioactive dose at 40 mg/kg, po after 24 hrs; type: ADME, organism-based; design: dose 40 mg/kg, route oral; settings: in vivo
[41] = Metabolic stability in CD1 mouse hepatocytes assessed as muraglitazar glucuronide level by LC/MS analysis relative to control; type: ADME, cell-based, Hepatocyte
Hepatocyte [42] = assay: Metabolic stability in human hepatocytes assessed as muraglitazar 12-carboxylic acid level by LC/MS analysis relative to control; type: ADME, cell-based
[43] = Drug concentration in cynomolgus monkey feces assessed as recovery of radioactive dose at 2 mg/kg, po after 168 hrs; type: ADME, organism-based, Macaca fascicularis; design: dose 2 mg/kg, route oral; settings: in vivo
[44] = Metabolic stability in CD1 mouse hepatocytes assessed as 8-hydroxy-O-demethyl muraglitazar level by LC/MS analysis relative to control; type: ADME, cell-based, Hepatocyte
[45] = Metabolic stability in cynomolgus monkey hepatocytes assessed as O-demethyl muraglitazar level by LC/MS analysis relative to control; type: ADME, cell-based, Macaca fascicularis, Hepatocyte
Plasma [46] = assay: Biodistribution in orally dosed cynomolgus monkey plasma assessed as […] muraglitazar level after 12 hrs by LC/MS analysis; type: ADME, organism-based, Macaca fascicularis; settings: in vivo, po
[47] = Biodistribution in orally dosed human feces assessed as 9-hydroxy-O-demethyl muraglitazar level by LC/MS analysis; type: ADME, organism-based; settings: in vivo, po
[48] = Tmax in Sprague-Dawley rat at 10 mg/kg, po after 24 hrs; type: ADME, organism-based; design: dose 10 mg/kg, route oral; settings: in vivo
Plasma [49] = assay: Biodistribution in orally dosed human plasma assessed as O-Dealkyl muraglitazar level after 4 hrs by LC/MS analysis; type: ADME, organism-based; settings: in vivo, po
Plasma [50] = assay: Biodistribution in orally dosed human plasma assessed as 8-hydroxy-O-demethyl muraglitazar level after 4 hrs by LC/MS analysis; type: ADME, organism-based; settings: in vivo, po

## COc1ccc(OC(=O)N(CC(=O)O)Cc2ccc(OCCc3nc(-c4ccccc4)oc3C)cc2)cc1 [MURAGLITAZAR]
Hepatocyte [1]
  Drug uptake: 7.5%
Plasma [2]
  Drug uptake: 0.1%
Hepatocyte [3]
  Drug uptake: 0.5%
Hepatocyte [4]
  Drug uptake: < 0.2%
Rattus norvegicus [5]
  AUC: 105 ugequiv.h/ml
[6]
  Drug uptake: 3.7%
[7]
  half-life: 23.5 h
Plasma [8]
  Drug uptake: < 0.05%
Cynomolgus monkey
  AUC: 71 ugequiv.h/ml
[9]
  Drug uptake: 2.41%
Plasma [10]
  Drug uptake: 0.5%
[11]
  dose excreted at 24 h: 0.49%
[12]
  Drug uptake: 8.3%
Rattus norvegicus [13]
  Drug uptake: 0.43%
Rattus norvegicus [14]
  Drug uptake: 1.75%
Hepatocyte [15]
  Drug uptake: < 0.2%
[16]
  Drug uptake: 8.2%
[17]
  Drug uptake: 3%
[18]
  Drug uptake: 0.1%
[19]
  Drug uptake: 0.375 mgequiv/ml
[20]
  dose excreted at 24 h: 65%
[21]
  Drug uptake: 89%
Plasma [22]
  Drug uptake: < 0.05%
Plasma [23]
  Drug uptake: 0.5%
Hepatocyte [24]
  Drug uptake: < 0.2%
[25]
  Drug uptake: < 0.2%
Plasma [26]
  Drug uptake: < 0.05%
[27]
  Drug uptake: 0.16%
[28]
  Drug uptake: 0.18%
[29]
  dose excreted at 48 h: 25%
Homo sapiens
  Cmax: 1.4 ugequiv/ml
[30]
  Drug uptake: 11%
[31]
  Drug uptake: 3.7%
[32]
  Drug uptake: 1.61%
Hepatocyte [33]
  Drug uptake: 0.5%
Plasma [34]
  Drug uptake: 3%
[35]
  Drug uptake: 3.21%
[36]
  Drug uptake: 1.6%
Rattus norvegicus [37]
  Drug uptake: 0.05%
[38]
  Drug uptake: 0.08%
[39]
  Drug uptake: 23.6%
[40]
  Drug uptake: 66%
[41]
  Drug uptake: 5.2%
Hepatocyte [42]
  Drug uptake: 0.9%
[43]
  Drug uptake: 80.4%
[44]
  Drug uptake: 4.8%
[45]
  Drug uptake: 2.1%
Plasma [46]
  Drug uptake: 1%
[47]
  Drug uptake: 2.21%
[48]
  Tmax: 0.5 h
Plasma [49]
  Drug uptake: < 0.05%
Plasma [50]
  Drug uptake: < 0.05%
